Molecular target: IDO (Homo sapiens, UniProt P14902)
Assay: LLE_IDO_ABS_DR (IDO assay)

Sequence of IDO (P14902 whole entry): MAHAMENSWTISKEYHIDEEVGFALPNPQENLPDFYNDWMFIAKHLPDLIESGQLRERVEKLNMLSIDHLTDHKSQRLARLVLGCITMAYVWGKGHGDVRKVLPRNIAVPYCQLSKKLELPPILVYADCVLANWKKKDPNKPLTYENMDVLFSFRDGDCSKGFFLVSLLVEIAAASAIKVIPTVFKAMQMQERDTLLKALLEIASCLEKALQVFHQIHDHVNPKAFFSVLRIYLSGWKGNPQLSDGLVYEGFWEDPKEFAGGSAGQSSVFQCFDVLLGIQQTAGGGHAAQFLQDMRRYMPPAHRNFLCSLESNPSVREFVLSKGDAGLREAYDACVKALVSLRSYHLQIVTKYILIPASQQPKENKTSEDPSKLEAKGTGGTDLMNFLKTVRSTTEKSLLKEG

Row | IC50 [nM] | Structure (SMILES)
1 | 20 | CC(C)CN(CC(C)C)c1ccc(-c2ccccc2-c2nnn[nH]2)cc1NC(=O)Nc1nccs1 [Example 7, 1-(4-(Diisobutylamino)-2′-(1H-tetrazol-5-yl)biphenyl-3-yl)-3-(thiazol-2-yl)urea]
2 | 90 | Cc1ccc(NC(=O)Nc2cc(-c3cc(F)ccc3C(=O)O)ccc2N(CC(C)C)CC2CCC2)cc1 [Example 99, 4′-((cyclobutylmethyl) (isobutyl)amino)-5-fluoro-3′-(3-p-tolylureido)biphenyl-2-carboxylic acid]
3 | 540 | O=C(Nc1ccc(OC(F)(F)F)cc1)Nc1cc(-c2ccccc2-c2nnn[nH]2)ccc1N(CCC(F)(F)F)Cc1ccc(F)cc1 [Example 323, 1-(4-((4-fluorobenzyl)(3,3,3-trifluoropropyl)amino)-2′-(1H-tetrazol-5-yl)-[1,1′-biphenyl]-3-yl)-3-(4-(trifluoromethoxy)phenyl)urea]
4 | 8.1 | CC(C)CN(c1ccc(-c2ccccc2C(=O)O)cc1NC(=O)Nc1ccc(OC(F)(F)F)cc1)C1CCC(F)(F)CC1 [Example 511, 4′-((4,4-Difluorocyclohexyl)(isobutyl)amino)-3′-(3-(4-(trifluoromethoxy)phenyl)ureido)-[1,1′-biphenyl]-2-carboxylic acid]
5 | 6.24 | CC(C)CN(CC(C)C)c1ccc(-c2ccccc2C(=O)O)cc1NC(=O)Nc1ccc(F)cc1F [Example 138, 3′-(3-(2,4-difluorophenyl)ureido)-4′-(diisobutylamino) biphenyl-2-carboxylic acid]
6 | 790 | Cc1ccc(NC(=O)Nc2cc(-c3ccccc3-c3nnn[nH]3)ccc2N2CC(C)CC(C)C2)cc1 (stereo not drawn) [Example 235, 1-(4-(3,5-Dimethylpiperidin-1-yl)-2′-(1H-tetrazol-5-yl)-[1,1′-biphenyl]-3-yl)-3-(p-tolyl)urea]
7 | 780 | CC(C)CN(CC(C)C)c1ccc(-c2ccccc2-c2nnn[nH]2)cc1NC(=O)Nc1cccc2c1CCC2 [Example 276, 1-(2,3-dihydro-1H-inden-4-yl)-3-(4-(diisobutylamino)-2′-(1H-tetrazol-5-yl)-[1,1′-biphenyl]-3-yl)urea]
8 | 20 | CC(C)CN(c1ccc(-c2ccccc2C(=O)O)cc1NC(=O)Nc1ccc(F)cc1F)C(C)C [Example 157, 3′-(3-(2,4-difluorophenyl)ureido)-4′-(isobutyl(isopropyl)amino)biphenyl-2-carboxylic acid]
9 | 300 | O=C(Nc1cc(-c2ccccc2-c2nnn[nH]2)ccc1N(CCc1ccccc1)CCC(F)(F)F)Nc1ccccc1C(F)(F)F [Example 295, 1-(4-(Phenethyl(3,3,3-trifluoropropyl)amino)-2′-(1H-tetrazol-5-yl)biphenyl-3-yl)-3-(2-(trifluoromethyl)phenyl)urea]
10 | 2720 | CC(C)CN(CC(C)C)c1ccc(-c2ccccc2-c2nnn[nH]2)cc1NC(=O)Nc1ccc(F)cc1OC(C)C [Example 272, 1-(4-(diisobutylamino)-2′-(1H-tetrazol-5-yl)-[1,1′-biphenyl]-3-yl)-3-(4-fluoro-2-isopropoxyphenyl)urea]
11 | 500 | CC(C)CN(CC(C)C)c1ccc(-c2ccccc2-c2nnn[nH]2)cc1NC(=O)Nc1cccc(F)c1O [Example 275, 1-(4-(diisobutylamino)-2′-(1H-tetrazol-5-yl)-[1,1′-biphenyl]-3-yl)-3-(3-fluoro-2-hydroxyphenyl)urea]
12 | 5010 | Cc1cc(NC(=O)Nc2cc(-c3ccccc3-c3nnn[nH]3)ccc2N2CCCc3ccccc32)on1 [Example 366, 1-(4-(3,4-Dihydroquinolin-1(2H)-yl)-2′-(1H-tetrazol-5-yl)-[1,1′-biphenyl]-3-yl)-3-(3-methylisoxazol-5-yl)urea]
13 | 400 | CCN(CC(C)(C)C)c1ccc(-c2cc(F)ccc2C(=O)O)cc1NC(=O)Nc1ccc(C)cc1 [Example 113, 4′-(ethyl(neopentyl)amino)-5-fluoro-3′-(3-p-tolylureido)biphenyl-2-carboxylic acid]
14 | 950 | CC(C)CN(CC(C)C)c1ccc(-c2ccccc2-c2nnn[nH]2)cc1NC(=O)NCC1CC1 [Example 142, 1-(cyclopropylmethyl)-3-(4-(diisobutylamino)-2′-(1H-tetrazol-5-yl)biphenyl-3-yl)urea]
15 | 230 | O=C(Nc1ccc(OC(F)(F)F)cc1)Nc1cc(-c2ccccc2-c2nnn[nH]2)ccc1N(CCC(F)(F)F)Cc1ccccn1 [Example 343, 1-(4-((pyridin-2-ylmethyl)(3,3,3-trifluoropropyl)amino)-2′-(1H-tetrazol-5-yl)-[1,1′-biphenyl]-3-yl)-3-(4-(trifluoromethoxy)phenyl)urea]
16 | 6.48 | CC(C)CN(CC(C)C)c1ccc(-c2ccccc2-c2nnn[nH]2)cc1NC(=O)Nc1ccc(C#N)cc1F [Example 260]
17 | 2.63 | CCCN(Cc1ccccc1)c1ccc(-c2ccccc2-c2nnn[nH]2)cc1NC(=O)Nc1ccc(C)cc1 [Example 185, 1-(4-(benzyl(propyl)amino)-2′-(1H-tetrazol-5-yl)-[1,1′-biphenyl]-3-yl)-3-(p-tolyl)urea]
18 | 10 | Cc1ccc(NC(=O)Nc2cc(-c3c(C(=O)O)cccc3N(C)C)ccc2N(CC(C)C)CC(C)C)cc1 [Example 101, 4′-(diisobutylamino)-6-(dimethylamino)-3′-(3-p-tolylureido) biphenyl-2-carboxylic acid]

Row | IC50 [nM] | Structure (SMILES)
19 | 2.44 | CC(C)CN(CC(C)C)c1ccc(-c2ccccc2-c2nnn[nH]2)cc1NC(=O)Nc1ccc2sccc2c1 [Example 259, 1-(benzo[b]thiophen-5-yl)-3-(4-(diisobutylamino)-2′-(1H-tetrazol-5-yl)-[1,1′-biphenyl]-3-yl)urea]
20 | 2760 | CC(C)CN(CC(C)C)c1ccc(-c2ccccc2-c2nnn[nH]2)cc1NC(=O)Nc1cccc2cnccc12 [Example 247, 1-(4-(diisobutylamino)-2′-(1H-tetrazol-5-yl)-[1,1′-biphenyl]-3-yl)-3-(isoquinolin-5-yl)urea]
21 | 180 | O=C(Nc1ccc(C2CC2)c(F)c1)Nc1cc(-c2ccccc2-c2nnn[nH]2)ccc1N(CCc1ccccc1)CCC(F)(F)F [Example 296, 1-(4-Cyclopropyl-3-fluorophenyl)-3-(4-(phenethyl(3,3,3-trifluoropropyl)amino)-2′-(1H-tetrazol-5-yl)biphenyl-3-yl)urea]
22 | 40 | Cc1ccc(NC(=O)Nc2cc(-c3ccccc3-c3nnn[nH]3)ccc2N2CCC(c3ccc(F)cc3)C2)cc1 (stereo not drawn) [Example 386]
23 | 6070 | CC(C)CN(CC(C)C)c1ccc(-c2ccccc2-c2nnn[nH]2)cc1NC(=O)Nc1cc(C(N)=O)ccc1Cl [Example 254, 4-chloro-3-(3-(4-(diisobutylamino)-2′-(1H-tetrazol-5-yl)-[1,1′-biphenyl]-3-yl)ureido)benzamide]
24 | 2230 | Cc1ccc(NC(=O)Nc2cc(-c3ccccc3-c3nnn[nH]3)ccc2N2CCC(c3ccc(F)cc3)C2)cn1 (stereo not drawn) [Example 387]
25 | 5.19 | Cc1ccc(NC(=O)Nc2cc(-c3ccccc3C(=O)O)ccc2N(CC(C)C)C2CCCCC2)cc1 [Example 119, 4′-(cyclohexyl (isobutyl)amino)-3′-(3-p-tolylureido)biphenyl-2-carboxylic acid]
26 | 10 | CC(C)CN(CC(C)C)c1ccc(-c2cc(F)ccc2C(=O)O)cc1NC(=O)Nc1ccc(F)cc1F [Example 146, 3′-(3-(2,4-difluorophenyl)ureido)-4′-(diisobutylamino)-5-fluorobiphenyl-2-carboxylic acid]
27 | 4.01 | [2H]C([2H])(C(C)C)N(c1ccc(-c2cc(F)ccc2C(=O)O)cc1NC(=O)Nc1ccccc1F)C1CCCCC1 [Example 34, 4′-(Cyclohexyl(1,1-dideutero-2-methylpropyl)amino)-5-fluoro-3′-(3-(2-fluorophenyl)ureido)biphenyl-2-carboxylic acid]
28 | 350 | Cc1ccc(NC(=O)Nc2cc(-c3cc(F)ccc3C(=O)O)ccc2N(CCC(F)(F)F)Cc2ccccc2)cc1 [Example 9, 4′-(Benzyl(3,3,3-trifluoropropyl)amino)-5-fluoro-3′-(3-(p-tolyl)ureido)-[1,1′-biphenyl]-2-carboxylic acid]
29 | 520 | O=C(Nc1ccc(OC(F)(F)F)cc1)Nc1cc(-c2ccccc2-c2nnn[nH]2)ccc1N1CCC(c2ccccc2)C1 (racemic) [Example 369, (±)-1-(4-(3-Phenylpyrrolidin-1-yl)-2′-(1H-tetrazol-5-yl)-[1,1′-biphenyl]-3-yl)-3-(4-(trifluoromethoxy)phenyl)urea]
30 | 1590 | Cc1noc(C2CCN(c3ccc(-c4ccccc4-c4nnn[nH]4)cc3NC(=O)Nc3ccc(C(F)(F)F)cc3F)C2)n1 (stereo not drawn) [Example 390]
31 | 210 | Cc1ccc(NC(=O)Nc2cc(-c3ccccc3-c3nnn[nH]3)ccc2N(C)c2ccccc2C(C)(C)C)cc1 [Example 210, 1-(4-((2-(tert-butyl)phenyl)(methyl)amino)-2′-(1H-tetrazol-5-yl)-[1,1′-biphenyl]-3-yl)-3-(p-tolyl)urea]
32 | 90 | Cc1ccc(NC(=O)Nc2cc(-c3cc(F)ccc3C(=O)O)ccc2N(CCC(F)(F)F)Cc2ccc(Cl)cc2)cc1 [Example 15, 4′-((4-Chlorobenzyl)(3,3,3-trifluoropropyl)amino)-5-fluoro-3′-(3-(p-tolyl)ureido)-[1,1′-biphenyl]-2-carboxylic acid]
33 | 4.55 | CCCN(c1ccc(-c2ccccc2-c2nnn[nH]2)cc1NC(=O)Nc1ccc(C)cc1)C1CCCC1 [Example 169, 1-(4-(cyclopentyl(propyl)amino)-2′-(1H-tetrazol-5-yl)biphenyl-3-yl)-3-p-tolylurea]
34 | 2.73 | CC(C)CN(CC(C)C)c1ccc(-c2ccccc2-c2nnn[nH]2)cc1NC(=O)Nc1cccc(N=[N+]=[N-])c1 [Example 257, 1-(3-azidophenyl)-3-(4-(diisobutylamino)-2′-(1H-tetrazol-5-yl)-[1,1′-biphenyl]-3-yl)urea]
35 | 4.85 | Cc1ccc(NC(=O)Nc2cc(-c3ccccc3-c3nnn[nH]3)ccc2N(CCCC(F)(F)F)Cc2ccc(Cl)cc2)cc1 [Example 320, 1-(4-((4-chlorobenzyl)(4,4,4-trifluorobutyl)amino)-2′-(1H-tetrazol-5-yl)-[1,1′-biphenyl]-3-yl)-3-(p-tolyl)urea]
36 | 30 | Cc1ccc(NC(=O)Nc2cc(-c3ccccc3-c3nnn[nH]3)ccc2N(CC(C)C)CC2CCC2)cc1 [Example 98, 1-(4-((cyclobutylmethyl) (isobutyl)amino)-2′-(1H-tetrazol-5-yl)biphenyl-3-yl)-3-p-tolylurea]

From patent US9758492B2, “IDO inhibitors” (Bristol-Myers Squibb Company, priority 2013, dated 2017)
